Measured values taken from patent US10010077B2, “Ginkgo derived compositions and their use to prevent fruit infestation by codling moth” (Missouri State University, priority 2012, dated 2018).
Marks after values point to notes of the source that are not given here.

What was measured:
mammals = conditions: cited from earlier work
[1] = concentration of 0.2%; cited from earlier work
codling moth neonates = experiment: apple plug choice feeding bioassay with codling moth neonates; type: in vivo, Cydia pomonella; design: key to Deterrence index: (1 − treated feeders / control feeders) × 100; conditions: for concentration at which feeding deterrent effects were found / feeding deterrent properties against codling moth neonates: Fisher exact test; for feeding deterrent properties against codling moth neonates: all concentrations tested
Method: Codling moth pupae were obtained from USDA-ARS Yakima Agricultural Research Laboratory in Wapato, Wash., USA. These pupae were stored at 25° C., 70-80% relative humidity and 16:8 (L:D). Moths were allowed to oviposit on polypropylene Ziploc bags (S. C. Johnson, Racine, Wis., USA). Neonates were collected 0.5-1.0 h post-hatch and subjected to bioassays immediately.
Bioassays were performed as described in details by Durden et al. (2008). Briefly, apple plugs were formed by forcing a plastic soda straw through a 20 mm thick section of apple containing both epidermis and flesh of the apple. The straw with a plug in it was cut to a length of approximately 15 mm, the plug positioned with the epidermis of the apple protruding 2 mm from the straw and entire assembly was dipped in liquid paraffin wax. Excess wax was removed from the epidermis of the plug using a warm spatula.
Five microliters of either control (dehydration alcohol only) or experimental solution was applied to the epidermis of each apple plug and allowed to dry. Using a small amount of modeling clay, four plugs (two controls, two experimental) were arranged with one control and one experimental plug facing each other at either side of a 60×15 mm polyurethane petri dish. A short piece of glass rod (1.3 mm diameter) was placed between the two pairs of plugs to form a bridge allowing tested codling moth neonate to choose between either control or experimental plug regardless of which direction the larva traveled along the glass rod.
Assays were evaluated after 20 hours to determine which plug was fed upon. Feeding deterrence index was calculated according to Jones (1952) by dividing the number of the neonates feeding on apple plugs treated with […] by the number of the neonates feeding on the plugs treated with dehydration alcohol only, subtracting this figure from 1, and multiplying the result by 100. Further details about this method may be found in Durden et al. (2008) and Durden et al., (2011).
[…] The number of tests per concentration (each test performed with a different neonate) varied between 13 and 93. The null hypothesis that 50% of neonates would choose control plugs and 50% would choose experimental plugs was tested using Fisher's Exact Test (α=0.05).

[2] = choice test versus fruit treated at 0.01 mg/ml
[3] = choice test versus fruit treated at 0.1 mg/ml
[4] = choice test versus fruit treated at 1 mg/ml
[5] = choice test versus fruit treated at 10 mg/ml
[6] = choice test versus fruit treated at 0.5 mg/ml
[7] = choice test versus fruit treated at 5 mg/ml
[8] = circa 3 mg/ml, saturated solution
[9] = choice test versus fruit treated at 30 mg/ml

| Compound | Deterrence index (codling moth neonates; 0.1 mg/ml) | Number of neonates feeding Treated fruit (codling moth neonates; 0.1 mg/ml) | Deterrence index (codling moth neonates; 1 mg/ml) | Number of neonates feeding Treated fruit (codling moth neonates; 1 mg/ml) | Deterrence index (codling moth neonates; 10 mg/ml) | Number of neonates feeding Treated fruit (codling moth neonates; 10 mg/ml) | Number of neonates feeding Control fruit (codling moth neonates; [3]) | Number of neonates feeding Control fruit (codling moth neonates; [4]) | Number of neonates feeding Control fruit (codling moth neonates; [5]) | Deterrence index (codling moth neonates; 0.5 mg/ml) | Number of neonates feeding Treated fruit (codling moth neonates; 0.5 mg/ml) | Deterrence index (codling moth neonates; 5 mg/ml) | Number of neonates feeding Treated fruit (codling moth neonates; 5 mg/ml) | feeding deterrent properties against codling moth neonates (codling moth neonates) | Number of neonates feeding Control fruit (codling moth neonates; [6]) | Number of neonates feeding Control fruit (codling moth neonates; [7]) | further results |
| --- | --- | --- | --- | --- | --- | --- | --- | --- | --- | --- | --- | --- | --- | --- | --- | --- | --- |
| CC(C)(C)[C@]1(O)CC2OC(=O)CC23C(=O)OC2OC(=O)[C@H](O)C231 (some centres unmarked) [Bilobalide] | 56.5 | 20* | 50 | 31* | 75 | 8** | 46 | 62 | 32 | – | – | – | – | – | – | – | LD50 (mammals): > 1,000 mg/kg; phytotoxicity [1]: not phytotoxic; Deterrence index (codling moth neonates; 0.001 mg/ml): 0; Number of neonates feeding Treated fruit (codling moth neonates; 0.001 mg/ml): 15; Deterrence index (codling moth neonates; 0.01 mg/ml): 23.5; Number of neonates feeding Treated fruit (codling moth neonates; 0.01 mg/ml): 13; concentration at which feeding deterrent effects were found (codling moth neonates): ≥ 0.1 mg/mL; Number of neonates feeding Control fruit (codling moth neonates; choice test versus fruit treated at 0.001 mg/ml): 15; Number of neonates feeding Control fruit (codling moth neonates; [2]): 17 |
| CCCCCCCCCCCCCc1cccc(O)c1C(=O)O [Ginkgolic acid 13:0] | – | – | 26.1 | 17 | 42.1 | 11 | – | 23 | 19 | 23.5 | 13 | 0 | 14 | did not exhibit significant feeding deterrent properties | 17 | 14 | – |
| CCCCCCCCCCCCCCCc1cccc(O)c1C(=O)O [Ginkgolic acid 15:0] | – | – | 91.7 | 1* | – | – | – | 12 | – | 26.7 | 11 | 81.8 | 4** | – | 15 | 22 | Deterrence index (codling moth neonates; 0.2 mg/ml): 25.0; Number of neonates feeding Treated fruit (codling moth neonates; 0.2 mg/ml): 12; Deterrence index (codling moth neonates; 2 mg/ml): 73.7; Number of neonates feeding Treated fruit (codling moth neonates; 2 mg/ml): 5*; concentration at which feeding deterrent effects were found (codling moth neonates): ≥ 1 mg/mL; Number of neonates feeding Control fruit (codling moth neonates; choice test versus fruit treated at 0.2 mg/ml): 16; Number of neonates feeding Control fruit (codling moth neonates; choice test versus fruit treated at 2 mg/ml): 19 |
| CCCCCC/C=C\CCCCCCCc1cccc(O)c1C(=O)O [Ginkgolic acid 15:1] | – | – | 41.7 | 14 | 63.2 | 7 | – | 24 | 19 | 18.8 | 13 | 50.0 | 15 | did not exhibit significant feeding deterrent properties | 16 | 30 | – |
| CCCCCC/C=C\CCCCCCCCCc1cccc(O)c1C(=O)O [Ginkgolic acid 17:1] | – | – | 5.3 | 18 | 60.0 | 8 | – | 19 | 20 | 37.5 | 10 | 54.5 | 10 | did not exhibit significant feeding deterrent properties | 16 | 22 | – |
| C[C@@H]1C(=O)O[C@H]2C[C@@]34[C@H]5C[C@@H](C(C)(C)C)[C@]36[C@@H](OC(=O)[C@@H]6O)O[C@@]4(C(=O)O5)[C@]21O [Ginkgolide A] | 7.69 | 12 | 40.4 | 28 | 38.5 | 16 | 13 | 47 | 26 | – | – | – | – | did not exhibit significant feeding deterrent properties | – | – | – |
| CC1C(=O)OC2C(O)C34C5CC(C(C)(C)C)C36C(OC(=O)C6O)OC4(C(=O)O5)C12O (centres unmarked) [Ginkgolide B] | 12.5 | 14 | 26.1 | 17 | 76.0 | 6*** | 16 | 23 | 25 | – | – | – | – | – | – | – | concentration at which feeding deterrent effects were found (codling moth neonates): 10 mg/mL |
| COc1cc(-c2oc3cc(O)cc(O)c3c(=O)c2O)ccc1O [Isorhamnetin] | 10.3 | 26 | No deterrence | 43 | – | – | 29 | 28 | – | – | – | – | – | slight tendency to discourage some percentage of the larvae from infesting the fruit | – | – | Deterrence index (codling moth neonates; 0.01 mg/ml): 21.7; Number of neonates feeding Treated fruit (codling moth neonates; 0.01 mg/ml): 18; Number of neonates feeding Control fruit (codling moth neonates; [2]): 23; Number of neonates feeding Control fruit (codling moth neonates; choice test versus fruit treated at circa 3 mg/ml, saturated solution): 28; Deterrence index (codling moth neonates; [8]): 32.1; Number of neonates feeding Treated fruit (codling moth neonates; [8]): 19 |
| O=c1c(O)c(-c2ccc(O)cc2)oc2cc(O)cc(O)c12 [Kaempferol] | No deterrence | 12 | 25 | 24 | No deterrence | 10 | 8 | 32 | 10 | – | – | – | – | – | – | – | Deterrence index (codling moth neonates; 30 mg/ml): No deterrence**; Number of neonates feeding Treated fruit (codling moth neonates; 30 mg/ml): 35; Deterrence index (codling moth neonates; 60 mg/ml): No deterrence*; Number of neonates feeding Treated fruit (codling moth neonates; 60 mg/ml): 17; Number of neonates feeding Control fruit (codling moth neonates; [9]): 9; Number of neonates feeding Control fruit (codling moth neonates; choice test versus fruit treated at 60 mg/ml): 3 |
| O=c1c(O)c(-c2ccc(O)c(O)c2)oc2cc(O)cc(O)c12 [Quercetin] | No deterrence | 14 | No deterrence | 24 | No deterrence | 20 | 10 | 24 | 16 | – | – | – | – | – | – | – | Deterrence index (codling moth neonates; 30 mg/ml): No deterrence**; Number of neonates feeding Treated fruit (codling moth neonates; 30 mg/ml): 21; Number of neonates feeding Control fruit (codling moth neonates; [9]): 4 |
| Ginkgolide C | 11.8 | 15 | 20 | 24 | 10 | 18 | 17 | 30 | 20 | – | – | – | – | did not exhibit significant feeding deterrent properties | – | – | – |
